Test results: paper PMC2650736 (Drug metabolism and disposition: the biological fate of …, 2008)
Read-outs that look alike come from different tables or passages of the source.

Tests used:
[1] = format: in vivo, human; details: for Cmax: read-out: Cmax, Geometric Mean (CV %)
[2] = Midazolam absorptive permeability in Caco-2 cell monolayers; format: in vitro ADME, human; details: human, apical to basolateral, midazolam 3 μM
Caco-2 cell monolayers = test: as above; format: in vitro ADME, human
[3] = CBJ, single oral 5 mg midazolam
[4] = water, single oral 5 mg midazolam

OCc1ncc2n1-c1ccc(Cl)cc1C(c1ccccc1F)=NC2 [1'-Hydroxymidazolam, 1'-hydroxymidazolam]
tmax [median (range)] ([1]; CBJ (3 × 240 ml sweetened double-strength juice E), single oral 5 mg midazolam): 2.0 (1.0−6.0) h
AUC0-∞, Geometric Mean (CV %) [1, 3]: 62 (25) nM●h
AUClast, Geometric Mean (CV %) [1, 3]: 55 (23) nM●h
t1/2 (terminal half-life), Geometric Mean (CV %) [1, 3]: 3.3 (19) h
Cmax [1, 3]: 0.01 µM
Cmax [1, 4]: 0.033 µM
AUC0-∞, CBJ / Water Ratio [90% CI] ([1]; single oral 5 mg midazolam): 0.84 [0.77−0.92]
AUClast, CBJ / Water Ratio [90% CI] ([1]; single oral 5 mg midazolam): 0.80 [0.73−0.88]
Cmax, CBJ / Water Ratio [90% CI] ([1]; single oral 5 mg midazolam): 0.32 [0.27−0.38]
t1/2, CBJ / Water Ratio [90% CI] ([1]; single oral 5 mg midazolam): 1.04 [0.89−1.20]
AUC0-∞, Geometric Mean (CV %) [1, 4]: 74 (37) nM●h
AUClast, Geometric Mean (CV %) [1, 4]: 69 (35) nM●h
t1/2 (terminal half-life), Geometric Mean (CV %) [1, 4]: 3.2 (35) h
tmax [median (range)] ([1]; water, single oral 5 mg midazolam, 16 healthy volunteers): 0.5 (0.25−1.5) h

Cc1ncc2n1-c1ccc(Cl)cc1C(c1ccccc1F)=NC2 [midazolam]
Papp A→B at 3 μM ([2]; Caco-2, Papp, acidic pH (5.5)): 219 ± 33 nm/s
Papp A→B at 3 μM ([2]; Caco-2, pH 7.4, Papp, control (plain incubation medium, pH 7.4)): 194 ± 18 nm/s
Papp A→B at 3 μM ([2]; Caco-2, pH 7.4, Papp, high glucose (50 g/L, pH 7.4)): 189 ± 28 nm/s
total amount of midazolam recovered from apical and basolateral chambers (Caco-2 cell monolayers; all time points, all conditions): ≥ 80 % of the initial amount added to the apical chamber
amount of midazolam recovered from cell scrapings (Caco-2 cell monolayers; end of 4-hour experiment, all four conditions): 7−9 % of the initial amount added to the apical chamber
CI/F, Geometric Mean (CV %) [1, 3]: 54 (30) L/h
t1/2 (terminal half-life), Geometric Mean (CV %) [1, 3]: 2.9 (25) h
half-life ([1]; human, plasma, po, 5 mg): 2.9 h
AUC0-∞, CBJ / Water Ratio [90% CI] ([1]; single oral 5 mg midazolam): 1.33 [1.17−1.50]
AUClast, CBJ / Water Ratio [90% CI] ([1]; single oral 5 mg midazolam): 1.31 [1.18−1.46]
CI/F, CBJ / Water Ratio [90% CI] ([1]; single oral 5 mg midazolam): 0.75 [0.67−0.85]
Cmax, CBJ / Water Ratio [90% CI] ([1]; single oral 5 mg midazolam): 0.56 [0.49−0.64]
t1/2, CBJ / Water Ratio [90% CI] ([1]; single oral 5 mg midazolam): 1.01 [0.86−1.19]
CI/F, Geometric Mean (CV %) [1, 4]: 71 (33) L/h
